One data set deals with T1, HIV protease (Human immunodeficiency virus type 1 group M subtype B, UniProt P04585).
T1 construct: final enzyme concentration of 12.3 nanomolar, based on a molecular weight of 10,780
Description: HIV protease enzyme assay (fluorescence, peptide substrate). It counts as biochemical. The note with it: HIV protease 12.3 nanomolar, substrate 80 μM, pH 6.4, ambient temperature. The source says:
The compounds of the present invention are effective HIV protease inhibitors. Utilizing an enzyme assay as described below, the compounds set forth in the examples herein disclosed inhibited the HIV enzyme. The preferred compounds of the present invention and their calculated IC50 (inhibiting concentration 50%, i.e., the concentration at which the inhibitor compound reduces enzyme activity by 50%) values are shown in Table 9. The enzyme method is described below. The substrate is 2-Ile-Nle-Phe(p-NO2)-Gln-ArgNH2. The positive control is MVT-101 (Miller, M. et al, Science, 2, 1149 (1989)) The assay conditions are as follows:
20 mM sodium phosphate, pH 6.4
The above described substrate is dissolved in DMSO, then diluted 10 fold in assay buffer. Final substrate concentration in the assay is 80 μM. HIV protease is diluted in the assay buffer to a final enzyme concentration of 12.3 nanomolar, based on a molecular weight of 10,780.
The final concentration of DMSO is 14% and the final concentration of glycerol is 18%. The test compound is dissolved in DMSO and diluted in DMSO to 10× the test concentration; 10 μl of the enzyme preparation is added, the materials mixed and then the mixture is incubated at ambient temperature for 15 minutes. The enzyme reaction is initiated by the addition of 40 μl of substrate. The increase in fluorescence is monitored at 4 time points (0, 8, 16 and 24 minutes) at ambient temperature. Each assay is carried out in duplicate wells.

The subject of the next data set is HIV-1 in CEM cells. Description: CEM cell assay: HIV inhibition in acutely infected cells (tetrazolium/MTT colorimetric). In kind it is cell-based. As to conditions: Human immunodeficiency virus 1, CCRF-CEM, 168 h, CEM cells acutely infected with HIV-1, 7 days, MTT readout. As to the method: The effectiveness of various compounds were determined in the above-described enzyme assay and in a CEM cell assay. The HIV inhibition assay method of acutely infected cell infected cells is an automated tetrazolium based colorimetric assay essentially that reported by Pauwles et al, J. Virol. Methods, 20 ≡, 309-321 (1988). Assays were performed in 96-well tissue culture plates. CEM cells, a CD4^+ cell line. were grown in RPMI-1640 medium (Gibco) supplemented with a 10% fetal calf serum and were then treated with polybrene (2 μg/ml). An 80 μl volume of medium containing 1×10^4 cells was dispensed into each well of the tissue culture plate. To each well was added a 100 μl volume of test compound dissolved in tissue culture medium (or medium without test compound as a control) to achieve the desired final concentration and the cells were incubated at 37° C. for 1 hour. A frozen culture of HIV-1 was diluted in culture medium to a concentration of 5×10^4 TCID50 per ml (TCID50=the dose of virus that infects 50% of cells in tissue culture), and a 20 μL volume of the virus sample (containing 1000 TCID50 of virus) was added to wells containing test compound and to wells containing only medium (infected control cells). Several wells received culture medium without virus (uninfected control cells). Likewise, the intrinsic toxicity of the test compound was determined by adding medium without virus to several wells containing test compound. In summary, the tissue culture plates contained the following experiments: [table] In experiments 2 and 4 the final concentrations of test compounds were 1, 10, 100 and 500 μg/ml. Either azidothymidine (AZT) or dideoxyinosine (ddI) was included as a positive drug control. […] DMSO was added to all control wells at an appropriate concentration. Following the addition of virus, cells were incubated at 37° C. in a humidified, 5% CO2 atmosphere for 7 days. Test compounds could be added on days 0, 2 and 5 if desired. On day 7, post-infection, the cells in each well were resuspended and a 100 μl sample of each cell suspension was removed for assay. A 20 μL volume of a 5 mg/ml solution of 3-(4,5-dimethylthiazol-2-yl)-2,5-diphenyltetrazolium bromide (MTT) was added to each 100 μL cell suspension, and the cells were incubated for 4 hours at […] in a 5% CO2 environment. […] To each sample was added 100 μl of 10% sodium dodecylsulfate in 0.01 N HCl to lyse the cells, and samples were incubated overnight. The absorbance at 590 nm was determined for each sample using a Molecular Devices microplate reader. Absorbance values for each set of wells is compared to assess viral control infection, uninfected control cell response as well as test compound by cytotoxicity and antiviral efficacy.

`CC(C)CN(C[C@@H](O)[C@H](Cc1ccccc1)NC(=O)[C@H](C)C[S+](C)[O-])S(=O)(=O)c1ccc2c(c1)OCO2` (single isomer, unassigned) [Entry 6]: the concentration for half-maximal inhibition (IC50) against HIV protease stood at 7 nM.
In the case of `CC(C)CN(C[C@@H](O)[C@H](Cc1ccccc1)NC(=O)[C@H](C)CS(C)(=O)=O)S(=O)(=O)c1ccc2c(c1)OCO2` [Entry 1], the EC50 in the data set with HIV-1 in CEM cells came out at 20 nM. This compound also showed an IC50 on HIV protease of 2 nM.
Consider `CC(C)CN(C[C@@H](O)[C@H](Cc1ccccc1)NC(=O)[C@H](C)CS(C)(=O)=O)S(=O)(=O)c1ccc2c(c1)CCO2` [Entry 2], for which, in the data set on HIV-1 in CEM cells, the EC50 was found to be 28 nM. Besides, the IC50 against HIV protease was determined as 2 nM.
For `CC(C)CN(C[C@@H](O)[C@H](Cc1ccccc1)NC(=O)[C@H](C)CS(C)(=O)=O)S(=O)(=O)c1ccc2ncsc2c1` [Entry 3], in that order: 26 nM and 3 nM.
Turning to `CC(C)CN(C[C@@H](O)[C@H](Cc1ccccc1)NC(=O)[C@H](C)CS(C)(=O)=O)S(=O)(=O)c1ccc2c(c1)OCCO2` [Entry 4], the concentration giving a half-maximal response (EC50) with HIV-1 in CEM cells was determined as 12 nM. Besides, inhibition at HIV protease was half-maximal at 2 nM (IC50).
For `CC(C)CN(C[C@@H](O)[C@H](Cc1ccccc1)NC(=O)[C@H](C)C[S+](C)[O-])S(=O)(=O)c1ccc2c(c1)OCO2` (stereo partly drawn) [Entry 5], in that order: 52 nM and 2 nM.
Compound `CC(C)CN(C[C@@H](O)[C@H](Cc1ccccc1)NC(=O)[C@H](C)CS(C)(=O)=O)S(=O)(=O)c1ccc2c(c1)OCO2` [Example 47, N-[2R-hydroxy-3-[(2-methylpropyl)[(1,3-benzodioxol-5-yl)sulfonyl]amino]-1S-(phenylmethyl)propyl]-2S-methyl-3-(methylsulfonyl)propanamide] yielded a melting point of 131.8 to 133.8 °C.

Source of the values: US6667307B2, “Sulfonylalkanoylamino hydroxyethylamino sulfonamide retroviral protease inhibitors” (G.D. Searle & Co., priority 1995, dated 2003).
